Measurements published in patent US11306063B2, “Heterocyclic naphthoquinones derivatives for use in the treatment of cancers including Cushing disease” (Commissariat a l'Energie Atomique et aux Energies …, priority 2016, dated 2022).

Experiments:
HCC827 cells = test: Cytotoxicity assay (PrestoBlue cell viability), HCC827; type: cell-based; details: Homo sapiens, 48 hours treatment
Method: Messa, Messa DX5, HCT116, HEK-293, PC-3, LNCaP, HCC827 and H1975 cell lines are issued from the American Type Culture Collection (ATCC).
(§1) For cytotoxicity assays, cells were seeded in 96-well microplates 24 hours before the addition of increasing concentrations of each compound in the culture medium. Cell viability was analyzed 48 hours following addition of each compound through the monitoring of mitochondrial […] activity using PrestoBlue® Cell Viability Reagent (Invitrogen; #A-13261). Paclitaxel was used as a control which is cytotoxic on various cancerous cells although not on chemoresistant MESSA DX5 lineage.

[1] = system: EGFR, P-EGFR, Met, P-Akt in HCC827 cells; test: Protein expression by immunoblot, HCC827; type: cell-based, human; details: 6 hours; dose dependent; FIG. 10
Method: Tubulin (Tub) serve as loading controls. One representative experiment out of two is presented.
(§2) Cells were treated by either DMSO (0.5%) or increasing doses of the selected molecules from 1 μM to 10 μM over 6 to 24 hours as indicated. […] Tubulin was detected using anti α-tubulin primary antibody (in-house: the polyclonal Glu-tubulin antibody (L4) is available commercially from Abcys (Paris, France)). HRP-coupled anti-rabbit (#A6154) and anti-mouse (#A4416) secondary antibodies were purchased from Sigma. HRP activity was detected through HRP chemoluminescence detection reagent (Millipore, #WBLUF0100). […] Positive control was Epotoside at 50 μM or 100 μM, a known drug inducing cancerous cell death by apoptosis.

[2] = system: EGFR and Met in HEK293T cells; test: Protein expression by immunoblot, HEK293T (Flag-USP8-S680A); type: cell-based, human; details: FIG. 11
Method: One representative experiment out of two is presented.
as §2

USP2-FL = USP2-FL (Homo sapiens, UniProt O75604); test: biochemical
[3] = Metabolic stability on human liver microsomes; type: in vitro ADME; details: 0.5 μM, up to 30 min; for cofactors (CYP)-mediated metabolism, human: with cofactors; for metabolism in the absence of cofactors, human: without cofactors
Method: Each compound was incubated either with cofactors (n=2) or without cofactors (n=1). Positive controls were: Diclofenac, Midazolam and Amitriptyline.

LNCaP cells spheroids = test: Cell migration out of 3D spheroids; type: cell-based, human; details: 2 μM and 5 μM; 1 to 7 days; FIG. 3
Method: In vitro migration out of the spheroid was performed using a 96-well tissue culture plate (Cell Culture Microplate, 96 wells, Flat-BOTTOM, CellStar #655090). 100 μL (72 h hours old+24 h drug treatment spheroids) were placed in corresponding well of the new flat microplate, and daily observed in bright field with a Zeiss Axio Observer microscope. Each condition was made in six replicates. The migration area was measured with the tools of the AxioObserver software.
To this end, 3-days old spheroids are placed in a new flat-well microplate and daily observed in bright field.

[4] = system: all cancerous cells tested; test: Cytotoxicity assay, summary over all cancerous cells tested; type: cell-based; details: Homo sapiens; 48 h treatment; read-out: EC50 of cell death, range over all cancerous cells tested
Method: as §1

[5] = system: CyclinD1 and FAS in PC-3 cells; test: Protein expression by immunoblot, PC-3; type: cell-based, human; details: dose and time dependent; 6 h or 24 h; FIG. 6
Method: In FIG. 6B and FIG. 6D, LNCaP cells were treated with dihydrotestosterone (DHT) to induce hormonal dependent FAS expression. Actin or Tubulin (Tub) serve as loading controls. One representative experiment out of three is presented.
Cells were treated by either DMSO (0.5%) or increasing doses of the selected molecules from 1 μM to 10 μM over 6 to 24 hours as indicated. Cell lysates were analyzed by immunoblotting following standard procedure using primary antibodies from Cell Signaling: anti-total P53 (#9282), anti-phosphoP53 Kit (#9919), anti-cyclinD1 (#2926), anti-FAS (#3189), anti EGFR (#4267), anti-Phospho (tyr1068) EGFR (#2234), anti Met (#4560), anti-Akt (#9272), anti Phospho(Ser473)-Akt (#9271) or anti-Myc (Santa Cruz Technology #Sc-40). Tubulin was detected using anti α-tubulin primary antibody (in-house: the polyclonal Glu-tubulin antibody (L4) is available commercially from Abcys (Paris, France)). HRP-coupled anti-rabbit (#A6154) and anti-mouse (#A4416) secondary antibodies were purchased from Sigma. HRP activity was detected through HRP chemoluminescence detection reagent (Millipore, #WBLUF0100). Apoptotic cell death induction was observed through the observation of PARP cleavage using anti-PARP primary antibodies anti-PARP (46D11) (#9532). Positive control was Epotoside at 50 μM or 100 μM, a known drug inducing cancerous cell death by apoptosis.

USP8 = details: increasing concentrations; HEK293T lysate; FIG. 13D
Method: FIG. 13 D: Flag-USP8 constructs were transfected in HEK293T cells for 48 hours using standard protocols. After cell lysis, the whole cell lysate was incubated with HA-Ub-Vs at 1.5 μM during 12 hours. Then the mixture was separated on SDS-page gel and immunoblotted with anti Flag antibodies (to reveal USP8). The upper band corresponds to USP8 linked to HA-Ub-Vs while the lower band corresponds to free USP8. Immunoblot with anti-tubuline antibodies served as internal loading control.

chicken embryos = test: Toxicity in the chick embryo model; type: in vivo; details: each second day at 2 μM or 10 μM; FIG. 4B
Method: The number of dead embryo evaluates the toxicity after 10 days of the treatment as well as the research of abnormality on 22 checkpoints observed on surviving embryos at two concentrations of drugs (i.e. 2 μM and 10 μM). • Head: Size, Closure, Eyes, Ear, Face and Branchial are derivatives, Mobility; • Body: Size, Axis deformation, ventral and dorsal Closures, Caudal formation, Sexual area; • Limbs: Size, Axis morphology, Mobility, • Skin: Appendage formation, Attachment, Blood vessel; • Extra-Embryonic Structures: Vascularisation, Transparency, Attachment, Blood vessel Results

USP2^CD = target: T1, USP2^CD (Homo sapiens, UniProt O75604); test: tri-Ub^K63 chains hydrolysis by USP2^CD (western blot); type: biochemical; details: FIG. 1C, at the indicated concentrations
T1 construct: The purified catalytic domain of USP2 (USP2^CD, in-house purified); His; made in house; host or cells: E. coli BL21 Gold
Method: The degradation of purified lysine 63-linked tree-Ubiquitin chains (triUb^K63) over a 90 minutes period of time was visualized by western blot analysis. […] Enzymatic assay was performed in a HEPES buffer (50 mM pH7.4, 150 mM NaCl, 0.5 mM EDTA, 2% glycerol, 0.2 mg/ml BSA, 5 mMDTT).

T1 sequence (O75604 267-599 limits assumed): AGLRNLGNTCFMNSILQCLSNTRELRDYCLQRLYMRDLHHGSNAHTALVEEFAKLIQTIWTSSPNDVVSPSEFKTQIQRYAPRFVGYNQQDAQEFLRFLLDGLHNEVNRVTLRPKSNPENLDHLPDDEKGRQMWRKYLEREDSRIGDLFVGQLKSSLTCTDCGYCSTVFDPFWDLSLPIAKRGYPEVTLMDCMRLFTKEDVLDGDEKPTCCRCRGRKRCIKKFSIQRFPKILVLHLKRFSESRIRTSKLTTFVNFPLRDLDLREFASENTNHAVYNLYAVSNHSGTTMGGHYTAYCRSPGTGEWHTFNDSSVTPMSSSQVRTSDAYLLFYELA
USP2-FL, sequence (O75604 whole entry): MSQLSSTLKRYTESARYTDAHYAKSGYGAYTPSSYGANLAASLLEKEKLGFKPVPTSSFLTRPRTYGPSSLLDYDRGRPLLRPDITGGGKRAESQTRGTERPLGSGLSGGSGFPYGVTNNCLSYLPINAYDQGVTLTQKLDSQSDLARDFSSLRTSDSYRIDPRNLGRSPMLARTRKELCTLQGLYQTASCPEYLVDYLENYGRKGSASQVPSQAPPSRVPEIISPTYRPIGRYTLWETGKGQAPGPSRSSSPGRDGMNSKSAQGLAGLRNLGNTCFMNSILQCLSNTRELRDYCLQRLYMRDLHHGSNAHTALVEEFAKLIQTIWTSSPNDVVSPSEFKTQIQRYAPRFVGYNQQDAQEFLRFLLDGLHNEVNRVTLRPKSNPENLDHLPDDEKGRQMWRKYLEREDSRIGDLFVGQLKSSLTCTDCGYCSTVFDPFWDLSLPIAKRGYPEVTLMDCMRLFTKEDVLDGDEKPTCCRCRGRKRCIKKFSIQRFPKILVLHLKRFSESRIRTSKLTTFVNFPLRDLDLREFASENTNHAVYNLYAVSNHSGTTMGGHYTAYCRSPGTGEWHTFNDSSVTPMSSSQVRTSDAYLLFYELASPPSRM

| SMILES | EC50 (HCC827 cells) [nM] | Akt phosphorylation, HCC827 [1] | EGFR degradation, HCC827 [1] | EGFR phosphorylation, HCC827 [1] | Met degradation, HCC827 [1] | EGFR levels induced by USP8-S680A, HEK293T ([2]; 6 h) | Met degradation, HEK293T ([2]; 6 hours, dose-dependent) | IC50 (USP2-FL) [nM] | cofactors (CYP)-mediated metabolism, human [3] | metabolism in the absence of cofactors, human [3] | prevention of cell migration out of the spheroids (LNCaP cells spheroids) | EC50 [4] [nM] | expression level of CyclinD1, PC-3 [5] | expression level of FAS, PC-3 [5] | HA-Ub-VS binding to USP8 in the whole cell lysate (USP8) | toxicity (death, macroscopic abnormalities) in chick embryo (chicken embryos) | inhibition of tri-Ub^K63 chains hydrolysis by USP2^CD (USP2^CD) |
| --- | --- | --- | --- | --- | --- | --- | --- | --- | --- | --- | --- | --- | --- | --- | --- | --- | --- |
| CCCCS(=O)(=O)Cc1nc2c(nc1CS(=O)(=O)CCCC)C(=O)c1ccccc1C2=O [PCR6236] | 1800 | prevents Akt phosphorylation | EGFR and Met degradation | induces EGFR phosphorylation | EGFR and Met degradation | markedly reduced EGFR levels | induced Met degradation | 200 | low | No metabolism was observed | strong capacity | 1000 to 3500 | strongly decreased | strongly decreased | decreased HA-Ub-VS binding to USP8 | No significant toxicity |  |
| CCCCS(=O)(=O)Cc1nc2c(o1)C(=O)c1ccccc1C2=O [PCR9301] |  |  |  |  |  |  |  |  | not or poorly metabolized | No metabolism was observed |  | 1000 to 3500 |  |  |  |  | full inhibition |
